biological target: T1, full length active recombinant SYK enzyme (Homo sapiens, UniProt P43405); experiment: Inhibition of Syk tyrosine phosphorylation activity (LANCE TR-FRET kinase assay); type: biochemical; settings: activity in the Syk assays, class symbols
T1 construct: full length active recombinant SYK enzyme (Millipore, Calif.); purchased Millipore
Summary of the method: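 IC50 was derived by non-linear regression of TR-FRET signal (Eu-W1024-PY100 donor, streptavidin-APC acceptor) read 1 h after EDTA quench. The kinase step ran 1 h at room temperature with 1 nM full-length SYK, 550 nM biotinylated DEEDYESP substrate and 100 μM ATP in Tris pH 7.5/MgCl2/DTT at 3% final DMSO.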

| IC50 [nM] | Compound |
| --- | --- |
| < 1 | CN1Cc2cc(Nc3nc(N[C@@H]4CCCC[C@@H]4N)cnc3C(N)=O)ccc2C1=O [Example 339, 5-((1R,2S)-2-aminocyclohexylamino)-3-(2-methyl-1-oxoisoindolin-5-ylamino)pyrazine-2-carboxamide] |
| 10 to 100 | CCc1ccc(Nc2nc(N[C@H](CC)C(N)=O)cnc2C(N)=O)cn1 [Example 340, (R)-5-(1-amino-1-oxobutan-2-ylamino)-3-(6-ethylpyridin-3-ylamino)pyrazine-2-carboxamide] |
| 10 to 100 | CC[C@@H](Nc1cnc(C(N)=O)c(Nc2ccc(C3CC3)nc2)n1)C(N)=O [Example 341, (R)-5-(1-amino-1-oxobutan-2-ylamino)-3-(6-cyclopropylpyridin-3-ylamino)pyrazine-2-carboxamide] |
| < 1 | CC[C@@H](Nc1cnc(C(N)=O)c(Nc2ccnc(C3CC3)c2)n1)C(N)=O [Example 342, (R)-5-(1-amino-1-oxobutan-2-ylamino)-3-(2-cyclopropylpyridin-4-ylamino)pyrazine-2-carboxamide] |
| 100 to 1000 | CCc1ccc(Nc2nc(N[C@@H]3CCCC(F)(F)[C@@H]3N)cnc2C(N)=O)cn1 [Example 343, 5-((1R,2R)-2-amino-3,3-difluorocyclohexylamino)-3-(6-ethylpyridin-3-ylamino)pyrazine-2-carboxamide] |
| < 1 | CC(C)C[C@@H](Nc1cnc(C(N)=O)c(Nc2ccnc(C3CC3)c2)n1)C(N)=O [Example 344, (R)-5-(1-amino-4-methyl-1-oxopentan-2-ylamino)-3-(2-cyclopropylpyridin-4-ylamino)pyrazine-2-carboxamide] |
| 10 to 100 | NC(=O)c1ncc(N[C@@H]2CCCC(F)(F)[C@@H]2N)nc1Nc1ccc(C2CC2)nc1 [Example 345, 5-((1R,2R)-2-amino-3,3-difluorocyclohexylamino)-3-(6-cyclopropylpyridin-3-ylamino)pyrazine-2-carboxamide] |
| 1 to 10 | NC(=O)c1ncc(N[C@@H]2CCCC(F)(F)[C@@H]2N)nc1Nc1ccnc(C2CC2)c1 [Example 346, 5-((1R,2R)-2-amino-3,3-difluorocyclohexylamino)-3-(2-cyclopropylpyridin-4-ylamino)pyrazine-2-carboxamide] |
| 1 to 10 | CCc1ccc(Nc2nc(N[C@H](CC(C)C)C(N)=O)cnc2C(N)=O)cn1 [Example 347, (R)-5-(1-amino-4-methyl-1-oxopentan-2-ylamino)-3-(6-ethylpyridin-3-ylamino)pyrazine-2-carboxamide] |
| 1 to 10 | CC(C)C[C@@H](Nc1cnc(C(N)=O)c(Nc2ccc(C3CC3)nc2)n1)C(N)=O [Example 348, (R)-5-(1-amino-4-methyl-1-oxopentan-2-ylamino)-3-(6-cyclopropylpyridin-3-ylamino)pyrazine-2-carboxamide] |
| 10 to 100 | CC[C@@H](Nc1cnc(C(N)=O)c(Nc2ccnc(C(F)(F)F)c2)n1)C(N)=O [Example 349, (R)-5-(1-amino-1-oxobutan-2-ylamino)-3-(2-(trifluoromethyl)pyridin-4-ylamino)pyrazine-2-carboxamide] |
| 1 to 10 | CCc1ccc(Nc2nc(N[C@@H]3CCCC[C@@H]3N)cnc2C(N)=O)cn1 [Example 350, 5-((1R,2S)-2-aminocyclohexylamino)-3-(6-ethylpyridin-3-ylamino)pyrazine-2-carboxamide] |
| 1 to 10 | NC(=O)c1ncc(N[C@@H]2CCCC[C@@H]2N)nc1Nc1ccc(C2CC2)nc1 [Example 351, 5-((1R,2S)-2-aminocyclohexylamino)-3-(6-cyclopropylpyridin-3-ylamino)pyrazine-2-carboxamide] |
| < 1 | NC(=O)c1ncc(N[C@@H]2CCCC[C@@H]2N)nc1Nc1ccnc(C2CC2)c1 [Example 352, 5-((1R,2S)-2-aminocyclohexylamino)-3-(2-cyclopropylpyridin-4-ylamino)pyrazine-2-carboxamide] |
| 1 to 10 | CC[C@@H](Nc1cnc(C(N)=O)c(Nc2ccnc(N(C)C)c2)n1)C(N)=O [Example 353, (R)-5-(1-amino-1-oxobutan-2-ylamino)-3-(2-(dimethylamino)pyridin-4-ylamino)pyrazine-2-carboxamide] |
| 10 to 100 | CCc1cc(Nc2nc(N[C@@H]3CCCC(F)(F)[C@@H]3N)cnc2C(N)=O)ccn1 [Example 355, 5-((1R,2R)-2-amino-3,3-difluorocyclohexylamino)-3-(2-ethylpyridin-4-ylamino)pyrazine-2-carboxamide] |
| 1 to 10 | COc1cc(Nc2nc(N[C@@H]3CCOC[C@@H]3N)cnc2C(N)=O)ccn1 [Example 357, 5-((3R,4R)-3-aminotetrahydro-2H-pyran-4-ylamino)-3-(2-methoxypyridin-4-ylamino)pyrazine-2-carboxamide] |
| 1 to 10 | COc1cncc(Nc2nc(N[C@@H]3CCOC[C@@H]3N)cnc2C(N)=O)c1 [Example 358, 5-((3R,4R)-3-aminotetrahydro-2H-pyran-4-ylamino)-3-(5-methoxypyridin-3-ylamino)pyrazine-2-carboxamide] |

| IC50 [nM] | Compound |
| --- | --- |
| 1 to 10 | CC[C@@H](Nc1cnc(C(N)=O)c(Nc2ccc(-c3cnn(C)c3)cc2)n1)C(N)=O [Example 359, (R)-5-(1-amino-1-oxobutan-2-ylamino)-3-(4-(1-methyl-1H-pyrazol-4-yl)phenylamino)pyrazine-2-carboxamide] |
| 10 to 100 | COC[C@@H](Nc1cnc(C(N)=O)c(Nc2ccc3ncccc3c2)n1)C(N)=O [Example 360, (R)-5-(1-amino-3-methoxy-1-oxopropan-2-ylamino)-3-(quinolin-6-ylamino)pyrazine-2-carboxamide] |
| 10 to 100 | NC(=O)c1ncc(N[C@H](Cc2ccncc2)C(N)=O)nc1Nc1ccc2ncccc2c1 [Example 361, (R)-5-(1-amino-1-oxo-3-(pyridin-4-yl)propan-2-ylamino)-3-(quinolin-6-ylamino)pyrazine-2-carboxamide] |
| 10 to 100 | NC(=O)c1ncc(NC2(C(N)=O)CC2)nc1Nc1cnc2ccccc2c1 [Example 362, 5-(1-carbamoylcyclopropylamino)-3-(quinolin-3-ylamino)pyrazine-2-carboxamide] |
| 10 to 100 | NC(=O)c1ncc(N[C@@H]2CCCC(F)(F)[C@@H]2N)nc1Nc1cncc2ccccc12 [Example 363, 5-((1R,2R)-2-amino-3,3-difluorocyclohexylamino)-3-(isoquinolin-4-ylamino)pyrazine-2-carboxamide] |
| 1 to 10 | NC(=O)c1ncc(N[C@@H]2CCCC(F)(F)[C@@H]2N)nc1Nc1ccc2cnccc2c1 [Example 364, 5-((1R,2R)-2-amino-3,3-difluorocyclohexylamino)-3-(isoquinolin-6-ylamino)pyrazine-2-carboxamide] |
| 10 to 100 | NC(=O)c1ncc(N[C@@H]2CCCC(F)(F)[C@@H]2N)nc1Nc1ccc2nccnc2c1 [Example 365, 5-((1R,2R)-2-amino-3,3-difluorocyclohexylamino)-3-(quinoxalin-6-ylamino)pyrazine-2-carboxamide] |
| 10 to 100 | NC(=O)c1ncc(N[C@@H]2CCCC(F)(F)[C@@H]2N)nc1Nc1ccnc2ccccc12 [Example 366, 5-((1R,2R)-2-amino-3,3-difluorocyclohexylamino)-3-(quinolin-4-ylamino)pyrazine-2-carboxamide] |
| 1 to 10 | CC[C@@H](Nc1cnc(C(N)=O)c(Nc2cncc3ccccc23)n1)C(N)=O [Example 367, (R)-5-(1-amino-1-oxobutan-2-ylamino)-3-(isoquinolin-4-ylamino)pyrazine-2-carboxamide] |
| 1 to 10 | CC[C@@H](Nc1cnc(C(N)=O)c(Nc2ccc3cnccc3c2)n1)C(N)=O [Example 368, (R)-5-(1-amino-1-oxobutan-2-ylamino)-3-(isoquinolin-6-ylamino)pyrazine-2-carboxamide] |
| 1 to 10 | CC[C@@H](Nc1cnc(C(N)=O)c(Nc2ccc3nccnc3c2)n1)C(N)=O [Example 369, (R)-5-(1-amino-1-oxobutan-2-ylamino)-3-(quinoxalin-6-ylamino)pyrazine-2-carboxamide] |
| 1 to 10 | CC[C@@H](Nc1cnc(C(N)=O)c(Nc2ccnc3ccccc23)n1)C(N)=O [Example 370, (R)-5-(1-amino-1-oxobutan-2-ylamino)-3-(quinolin-4-ylamino)pyrazine-2-carboxamide] |
| 10 to 100 | NC(=O)c1ncc(N[C@@H]2CCCC(F)(F)[C@@H]2N)nc1Nc1cccnc1 [Example 371, 5-((1R,2R)-2-amino-3,3-difluorocyclohexylamino)-3-(pyridin-3-ylamino)pyrazine-2-carboxamide] |
| 10 to 100 | NC(=O)c1ncc(N[C@@H]2CCCC(F)(F)[C@@H]2N)nc1Nc1cccc(F)c1 [Example 372, 5-((1R,2R)-2-amino-3,3-difluorocyclohexylamino)-3-(3-fluorophenylamino)pyrazine-2-carboxamide] |
| 1 to 10 | CC[C@@H](Nc1cnc(C(N)=O)c(Nc2cc(C)ns2)n1)C(N)=O [Example 373, (R)-5-(1-amino-1-oxobutan-2-ylamino)-3-(3-methylisothiazol-5-ylamino)pyrazine-2-carboxamide] |
| 1 to 10 | Cc1cc(Nc2nc(N[C@H](CC3CC3)C(N)=O)cnc2C(N)=O)sn1 [Example 374, (R)-5-(1-amino-3-cyclopropyl-1-oxopropan-2-ylamino)-3-(3-methylisothiazol-5-ylamino)pyrazine-2-carboxamide] |
| 1 to 10 | CC[C@@H](Nc1cnc(C(N)=O)c(Nc2cccc3ncccc23)n1)C(N)=O [Example 375, (R)-5-(1-amino-1-oxobutan-2-ylamino)-3-(quinolin-5-ylamino)pyrazine-2-carboxamide] |

| Compound | IC50 [nM] |
| --- | --- |
| CC[C@@H](Nc1cnc(C(N)=O)c(Nc2ccnc(OC3CCC3)c2)n1)C(N)=O [Example 354, (R)-5-(1-amino-1-oxobutan-2-ylamino)-3-(2-cyclobutoxypyridin-4-ylamino)pyrazine-2-carboxamide] | 1 to 10 |
| NC(=O)c1ncc(N[C@@H]2CCCC(F)(F)[C@@H]2N)nc1Nc1ccnc(OC2CCC2)c1 [Example 356, 5-((1R,2R)-2-amino-3,3-difluorocyclohexylamino)-3-(2-cyclobutoxypyridin-4-ylamino)pyrazine-2-carboxamide] | 10 to 100 |

From patent publication US9359308B2, “Pyrazine kinase inhibitors” (Portola Pharmaceuticals, Inc., priority 2011, dated 2016)
